For eleven compounds, MIC results are on record in ChEMBL document CHEMBL1129875, “SYNTHESIS AND ANTISTAPHYLOCOCCAL ACTIVITY OF NEMATOPHIN AND ITS ANALOGS” (1997).

In brackets after ≈: the same amount, converted by molar mass.

This test relates to Staphylococcus aureus. Description: Minimum inhibitory concentration required to inhibit Staphylococcus aureus ATCC 29213 cell growth. In kind it is functional.
What is called MIC is the smallest concentration in the dilution series that meets the test's criterion for growth inhibition. As to `CC(C)C(=O)C(=O)NCCc1c[nH]c2ccccc12`, the MIC came to 3 µg/mL (≈ 11.6 µM).
For `CC(C)CC(=O)C(=O)NCCc1c[nH]c2ccccc12`, the MIC is 0.7 µg/mL (≈ 2.57 µM).
For `CCC(=O)C(=O)NCCc1c[nH]c2ccccc12`, the minimum inhibitory concentration (MIC) was 100 µg/mL (≈ 409 µM).
Turning to `CCC(C)C(=O)C(=O)NCCc1c[nH]c2ccccc12` (stereo unspecified), the MIC is 0.7 µg/mL (≈ 2.57 µM).
Compound `CCC(C)C(=O)C(=O)OCCc1c[nH]c2ccccc12` (stereo unspecified) had an MIC of 25 µg/mL (≈ 91.5 µM).
In the case of `CC(=O)C(=O)NCCc1c[nH]c2ccccc12` it was 100 µg/mL (≈ 434 µM); in that of `CCC(C)C(=O)C(=O)NCCc1c[nH]c2ccc(C)cc12` (stereo unspecified), 3 µg/mL (≈ 10.5 µM).
`CCC(C)C(O)C(=O)NCCc1c[nH]c2ccccc12` (stereo unspecified) came in with an MIC of over 100 µg/mL.
Take `CCC(C)/C(=N\OC)C(=O)NCCc1c[nH]c2ccccc12` (stereo unspecified): the minimum inhibitory concentration (MIC) is over 100 µg/mL.
As for `CCC(C)C(=O)C(=O)NCCc1c[nH]c2cc(F)ccc12` (stereo unspecified), the figure is 0.7 µg/mL (≈ 2.41 µM); as for `CCC(C)C(=O)C(=O)NCCc1c[nH]c2ccc(OC)cc12` (stereo unspecified), 3 µg/mL (≈ 9.92 µM).
